Laboratory results taken from patent publication US20090326072A1, “USE OF 2-(2-NITRO-4-TRIFLUOROMETHYLBENZOYL)-l,3- CYCLOHEXANEDIONE IN THE TREATMENT OF PARKINSON'S DISEASE” (priority 2005, published 2009).
“Also recorded” adds a separate entry of the source. Read-outs that look alike come from different tables or passages of the source.

Key:
[1] = test system: AMPT rat model of Parkinson's disease; experiment: AMPT rat model of Parkinson's disease (catalepsy descent latency and centre rearing counts); assay type: in vivo
Experimental: AMPT is a competitive inhibitor of tyrosine hydroxylase. Rats dosed with >150 mg/kg AMPT develop parkinsonian-like behavior and locomotor deficits (e.g. catalepsy and reduced rearing activity) within hours owing to the depletion of striatal dopamine concentration as a consequence of the reduced flux through the dopamine synthetic pathway. […] Indian J. Exp. Biol. 41, 1264-1268).
The effect was compared with appropriate vehicle control groups (oral vehicle was 1% carboxymethylcellulose; CMC) and a group that received a 150 mg/kg i.p. dose of L-dopa.
Eight hours after AMPT (or vehicle) administration rats were assessed for catalepsy and centre rearing activity. During the catalepsy test, the front paws of the rat were placed over a horizontal bar suspended 9 cm off the floor. The time taken for the rat to get off the bar (descent latency) was measured with a maximum time of 3 minutes being allowed. Centre rearing counts were determined over a 1 hour monitoring period using an automated activity monitoring system (AM1053). This system used an array of infrared beams to determine the activity and mobility of each animal. Each cage had 48 infrared beams, 24 on each of two levels arranged in an 8×16, 1″ (25.4 mm) pitch grid. The lower grid measured horizontal x, y movement, whilst the upper grid measured rearing movement. The activity detector operated by counting the number of times the beams changed from unbroken to broken and then incrementing the relevant counters.
These groups were compared to a positive control group (6) dosed with 225 mg/kg AMPT i.p.+150 mg/kg L-dopa i.p. 6.5 hour post AMPT dose. L-dopa was administered with a peripheral dopa decarboxylase inhibitor (benserazide), at 100 mg/kg i.p.
In a second and third series of experiments, the efficacy of eight other HPPD inhibitor test compounds were assessed in the AMPT rat model of Parkinson's disease (Tables 1.5 & 1.6). Male Sprague-Dawley rats (300-350 g) were administered a single i.p. dose of 225 mg/kg AMPT and a single oral dose of 10 mg/kg of the HPPD inhibitor test compound was administered either 1 or 16 hours prior to (−16 or −1 hours) AMPT administration. Behavioral assessment (catalepsy and centre rearing counts) was conducted 8 hours post AMPT administration. The effect was compared with a vehicle control group and a group receiving AMPT alone.

[2] = target: T1, 4-hydroxyphenyl pyruvate dioxygenase (HPPD) (Rattus norvegicus, UniProt P32755); experiment: Determination of 4-hydroxyphenyl pyruvate dioxygenase (HPPD) enzyme activity in vitro (rate of oxygen consumption, rat liver cytosol); assay type: biochemical; details: for inhibition at 0.1 µM: read-out: % Inhibition at 100 nM; for inhibition at 0.3 µM: read-out: % inhibition at 300 nM
T1 construct: rat liver cytosol (2.7 mg of protein/ml incubate); from tissue; host or cells: rat liver (cytosol, 110,000 g supernatant)
T1 sequence (P32755 whole entry): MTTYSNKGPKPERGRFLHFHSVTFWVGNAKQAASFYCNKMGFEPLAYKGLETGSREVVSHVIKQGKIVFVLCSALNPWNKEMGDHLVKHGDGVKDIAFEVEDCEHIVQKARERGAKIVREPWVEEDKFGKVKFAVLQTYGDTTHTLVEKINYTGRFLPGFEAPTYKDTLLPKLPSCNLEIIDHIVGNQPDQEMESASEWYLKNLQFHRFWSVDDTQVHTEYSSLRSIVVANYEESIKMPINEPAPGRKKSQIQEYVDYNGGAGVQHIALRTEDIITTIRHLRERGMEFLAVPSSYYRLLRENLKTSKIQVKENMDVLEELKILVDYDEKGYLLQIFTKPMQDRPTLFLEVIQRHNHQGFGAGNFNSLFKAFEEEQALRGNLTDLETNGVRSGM
Experimental: The principle of the assay is that 4-hydroxyphenyl pyruvate dioxygenase (HPPD), an enzyme that participates in the catabolism of tyrosine, catalyses the oxidative decarboxylation and rearrangement of 4-hydroxyphenylpyruvate (HPPA) to homogentisate, with the incorporation of both atoms of molecular oxygen into the product.
Rat liver was homogenised in buffer of the following composition; 0.25 M Sucrose, 5.4 mM EDTA, 20 mM Tris base, pH 7.4, (25% homogenate) using 6 passes of a Potter type homogeniser. The homogenate was then centrifuged at 1,800 g for 10 minutes at 4° C., the pellet was discarded and the supernatant centrifuged at 17,000 g for a further 15 minutes at 4° C. The pellet was then discarded and the supernatant centrifuged at 110,000 g for 80 minutes at 4° C. The supernatant containing the HPPD enzyme from this 110,000 g spin was collected and stored frozen at −70° C. and used in the assays of the test compounds (see below).
Prior to the start of the enzymatic reaction by the addition of HPPA substrate, the enzyme and test compound (inhibitor) were incubated together for 3 minutes.
In cases where the effects of several concentrations of an inhibitor were investigated, an IC50 value (the half-maximal inhibitory concentration of test compound) was determined by plotting the data using a non-linear regression curve-fitting program using a GraphPad Prism™ software package.
Data are expressed as mean values from two experiments except where indicated. Where appropriate the values are expressed as the mean±standard deviation.

plasma tyrosine = experiment: Plasma tyrosine concentration kinetic profile in the rat following a single oral dose; assay type: in vivo; details: for Plasma Tyrosine Concentration: single oral dose 10 mg/kg; for Plasma tyrosine: single oral dose 2.0 mg/kg
Experimental: The plasma tyrosine concentration kinetic profile in the rat was determined for each of the HPPD inhibitor test compounds by administering a single oral dose to 10-12 week old male Sprague Dawley rats. Compounds 3.20, 3.13 and 3.26 were dosed at 2 mg/kg in 1% carboxymethylcellulose (1% CMC) vehicle, whilst compounds 3.22, 3.12, 3.15, 3.18, 3.23, 3.21, 3.11, 3.01, 3.24 and 3.25 were administered at 10 mg/kg in 1% CMC.
Blood samples to determine plasma tyrosine concentration were obtained at frequent intervals during the first 24 hours post-dose, and at 48 hours post-dose. These samples were either compared with blood samples obtained from control rats which only received an equivalent volume of the vehicle, 1% CMC, or by comparison with control samples obtained from the rats 1 hour prior to dosing with test the compound. Prior to the analysis of the samples for plasma tyrosine concentration, the blood samples were centrifuged at 1800 g for 10 minutes at 4° C. The plasma was collected and then filtered through a centrifugal micro partition device at 1500 g for 30 minutes at 4° C. The filtered plasma was then divided into two aliquots and stored frozen at −70° C. for subsequent gradient reverse phase high performance liquid chromatographic (HPLC) analysis of plasma tyrosine. Aliquots of plasma were analysed by HPLC using a 250×4.6 mm Hichrom S5ODS2 column at 30° C., eluted with a mobile phase of water/acetonitrile/trifluoroacetic acid (950:50:2 v/v/v) at a flow rate of 1 ml/min. Detection was by a diode array detector at 274 nm. Appropriate tyrosine standards were run alongside the samples for calibration purposes.
The plasma tyrosine concentration kinetic profile for the test compounds 3.20, 3.13 and 3.26 are shown at the time points 1, 2, 4, 6, 12, 24 and 48 hours post-dose in Table 1.1. The data shown are the mean±standard deviation (n=4), except for the 6 hour time point where the data were obtained from n=3 rats for the control and 3.26 groups.
The plasma tyrosine concentration kinetic profile for the test compounds 3.22, 3.12, 3.15, 3.18, 3.23, 3.21, 3.11, 3.01, 3.24 and 3.25 are shown at the time points −1 hour (pre-dose control), 1, 3, 6, 12, 24 and 48 hours post-dose, in Tables 1.2 and 1.3. The data shown are the mean±standard deviation (n=3), except for the −1 hour time point with compound 3.23, where n=2 (Table 1.2), and for the 3 and 6 hour time points with compound 3.21, where n=2 (Table 1.3).

[3] = 225 mg/kg AMPT i.p. + 2 mg/kg oral 4 hours post AMPT (+4 hours), 8 h post AMPT
[4] = 225 mg/kg AMPT i.p. + 2 mg/kg oral 16 hours prior to AMPT (-16 hours), 8 h post AMPT
[5] = single oral dose 10 mg/kg, -16 or -1 hours
[6] = single oral dose 10 mg/kg, -16 or -1 hours, 10 mg/kg
[7] = Table 1.5: 225 mg/kg AMPT i.p. + 10 mg/kg oral at -16 hours, 8 h post AMPT
[8] = 100 nM test compound, rat liver cytosol, 3 min pre-incubation
[9] = 300 nM test compound, rat liver cytosol, 3 min pre-incubation
[10] = 225 mg/kg AMPT i.p. + 150 mg/kg i.p. at +6.5 hours, with benserazide 100 mg/kg i.p., 8 h post AMPT

Row | SMILES | inhibition at 0.1 µM [2] | inhibition at 0.3 µM [2] | Plasma Tyrosine Concentration (plasma tyrosine; 1 hour post-dose) | Plasma Tyrosine Concentration (plasma tyrosine; 3 hours post-dose) | Plasma Tyrosine Concentration (plasma tyrosine; 6 hours post-dose) | Plasma Tyrosine Concentration (plasma tyrosine; 12 hours post-dose) | Plasma Tyrosine Concentration (plasma tyrosine; 24 hours post-dose) | Plasma Tyrosine Concentration (plasma tyrosine; 48 hours post-dose) | inhibition at 0.1 µM [2, 8] | also measured
1 | O=C1CCCC(O)=C1C(=O)c1ccc(C(F)(F)F)cc1[N+](=O)[O-] [Compound 2, 2-(2-Nitro-4-Trifluoromethylbenzoyl)-1,3-Cyclohexanedione] |  |  |  |  |  |  |  |  |  | Mean Catalepsy Descent Latency (s) [1, 3]: 27 ± 6.7^++ s; Mean Centre Rearing Counts [1, 3]: 298 ± 57^++ counts; Mean Catalepsy Descent Latency (s) [1, 4]: 27 ± 5.4^++ s; Mean Centre Rearing Counts [1, 4]: 364 ± 74^++ counts; Mean Catalepsy Descent Latency ([1]; AMPT vehicle (saline i.p., no AMPT) + 2 mg/kg oral at +4 hours, assessed 8 h): 12 ± 4.3 s; Mean Centre Rearing Counts ([1]; AMPT vehicle (saline i.p., no AMPT) + 2 mg/kg oral at +4 hours, assessed 8 h, 1 hour monitoring): 485 ± 108 counts; reversal of AMPT induced deficits in centre rearing counts (in words) ([1]; single oral dose 2 mg/kg, 2 mg/kg): reversed; also recorded: effective in reversing; reversal of AMPT induced catalepsy (in words) ([1]; single oral dose 2 mg/kg, both dosing regimens, 2 mg/kg): substantially reversed; also recorded: effective in reversing
2 | CS(=O)(=O)c1cc(C(F)(F)F)ccc1C(=O)c1cnoc1C1CC1 [Compound 3.01] | 8% | 36% | 160 ± 7.4 nmol/mL | 276 ± 12.9 nmol/mL | 445 ± 32.9 nmol/mL | 666 ± 16.1 nmol/mL | 264 ± 23.5 nmol/mL | 110 ± 23.9 nmol/mL |  | Mean Centre Rearing Counts ([1]; Table 1.6: 225 mg/kg AMPT i.p. + 10 mg/kg oral at -1 hour, 8 h post AMPT): 88 ± 26 counts; reversal of AMPT induced deficits in mean centre rearing counts (in words) [1, 5]: either partially or completely reversing; reversal of AMPT induced catalepsy (in words) [1, 6]: substantially reversed; also recorded: effective in reversing
3 | Cc1cc(C(=O)C2=C([O-])CCCC2=O)c(C)c2c1S(=O)(=O)CCC21OCCO1.[K+] [Compound 3.11] | 9% | 45% | 193 ± 22.9 nmol/mL | 338 ± 48.9 nmol/mL | 551 ± 80.7 nmol/mL | 1041 ± 106.0 nmol/mL | 2125 ± 65.8 nmol/mL | 993 ± 260.6 nmol/mL |  | Mean Catalepsy Descent Latency (s) [1, 7]: 9 ± 2.7^+++ s; Mean Centre Rearing Counts [1, 7]: 303 ± 53 counts; reversal of AMPT induced deficits in mean centre rearing counts (in words) [1, 5]: either partially or completely reversing; reversal of AMPT induced catalepsy (in words) [1, 6]: substantially reversed; also recorded: effective in reversing
4 | COCCOCc1nc(C(F)(F)F)ccc1C(=O)C1=C(O)C2CCC(C2)C1=O (stereo not drawn) [Compound 3.13] | 14% | 41% |  |  |  |  |  |  |  | IC50 ([2]; rat liver cytosol HPPD): 350 nM; Plasma tyrosine (plasma tyrosine; 1 hour post-dose): 158 ± 6.4 nmol/mL; Plasma tyrosine (plasma tyrosine; 2 hours post-dose): 209 ± 14.8 nmol/mL; Plasma tyrosine (plasma tyrosine; 4 hours post-dose): 324 ± 50.2 nmol/mL; Plasma tyrosine (plasma tyrosine; 6 hours post-dose): 461 ± 52.2 nmol/mL; Plasma tyrosine (plasma tyrosine; 12 hours post-dose): 801 ± 24.8 nmol/mL; Plasma tyrosine (plasma tyrosine; 24 hours post-dose): 1281 ± 90.0 nmol/mL; Plasma tyrosine (plasma tyrosine; 48 hours post-dose): 115 ± 3.0 nmol/mL
5 | CC1=NN(C)C(=O)C1C(=O)c1ccc(C(F)(F)F)cc1S(C)(=O)=O (stereo not drawn) [Compound 3.21] | 10% | 43% | 177 ± 17.8 nmol/mL | 300 nmol/mL | 472 nmol/mL | 555 ± 39.0 nmol/mL | 181 ± 23.6 nmol/mL | 100 ± 6.4 nmol/mL |  | 
6 | CCOc1c(S(C)(=O)=O)ccc(C(=O)C2C(=O)CC(C)CC2=O)c1Cl (stereo not drawn) [Compound 3.22] |  |  | 179 ± 18.5 nmol/mL | 319 ± 43.5 nmol/mL | 507 ± 86.4 nmol/mL | 1011 ± 134.8 nmol/mL | 2067 ± 36.6 nmol/mL | 2377 ± 518.5 nmol/mL | 44% | 
7 | CS(=O)(=O)c1cc(Cl)ccc1C(=O)c1cnoc1C1CC1 [Compound 3.25] |  |  | 162 ± 17.7 nmol/mL | 267 ± 19.4 nmol/mL | 370 ± 60.8 nmol/mL | 415 ± 152.8 nmol/mL | 136 ± 31.2 nmol/mL | 100 ± 13.5 nmol/mL | 5% | inhibition at 0.3 µM [2, 9]: 22%
8 | Cc1nc(C(F)F)ccc1C(=O)C1C(=O)C2CCC(C2)C1=O (stereo not drawn) [Compound 3.26] |  |  |  |  |  |  |  |  | 20 ± 6.1% | inhibition at 0.3 µM [2, 9]: 43%; Plasma tyrosine (plasma tyrosine; 1 hour post-dose): 173 ± 9.6 nmol/mL; Plasma tyrosine (plasma tyrosine; 2 hours post-dose): 241 ± 24.0 nmol/mL; Plasma tyrosine (plasma tyrosine; 4 hours post-dose): 337 ± 53.5 nmol/mL; Plasma tyrosine (plasma tyrosine; 6 hours post-dose): 504 ± 72.7 nmol/mL; Plasma tyrosine (plasma tyrosine; 12 hours post-dose): 897 ± 140.8 nmol/mL; Plasma tyrosine (plasma tyrosine; 24 hours post-dose): 1987 ± 50.0 nmol/mL; Plasma tyrosine (plasma tyrosine; 48 hours post-dose): 2449 ± 156.8 nmol/mL
9 | N[C@@H](Cc1ccc(O)c(O)c1)C(=O)O [L-dopa, L-3,4-dihydroxyphenylalanine, reference compound] |  |  |  |  |  |  |  |  |  | Mean Catalepsy Descent Latency (s) [1, 10]: 25 ± 6.9^++ s; Mean Centre Rearing Counts [1, 10]: 258 ± 71^+ counts
